The test system of the test is HepG2-A16-CD81EGFP cells. The following applies: for IC50: read-out: Tox_IC50, HepG2 cytotoxicity.
Setting [1] is: 2nd round, maximal inhibition in dose series.
[2] abbreviates: sheet 2nd round, maximal inhibition in dose response.

Like-named read-outs stand apart in the source and are kept apart here.

Regarding `CN1c2ccc(C#Cc3cccnc3)cc2[C@@H]2[C@@H](CCN2C(=O)c2cccc(F)c2)[C@@H]1CO` [BRD-K18296007-001-01-0], the “Tox_max_inhibition (%)” value under setting [1] was found to be 14%. In addition, the IC50 (2nd round, unit inferred) is > 10 µM.

For `CCCNC(=O)N1[C@H](C#N)[C@H](c2ccccc2-c2ccc(OC)cc2)[C@@H]1CO` [BRD-K19492647-001-01-0], the “Tox_max_inhibition (%)” value under setting [1] worked out at 9%. In addition, the IC50 (2nd round, unit inferred) is > 10 µM.

On to `CC(C)(C)[S+]([O-])N1Cc2cc(C(=O)NCc3ccc4c(c3)OCO4)nc(-c3cccc(-c4cc5ccccc5o4)c3)c2[C@H]1CCO` (stereo partly drawn) [BRD-K19560511-001-03-3], for which the “Tox_max_inhibition (%)” value under setting [1] is reported as 12%. The IC50 (2nd round, unit inferred) is > 10 µM.

On to `COc1ccc2c3c(n(C)c2c1)[C@H](CO)N(Cc1ccc2c(c1)OCO2)CC31CN(C(=O)c2ccc3c(c2)OCO3)C1` [BRD-K24711160-001-01-3], for which, under “sheet 2nd round”, the IC50 is > 10 µM. Besides, under setting [2], the “Tox_max_inhibition (%)” value came to 3%.

For `O=C(Nc1cc(F)ccc1F)N1CCCCN2[C@H](CO)[C@H](c3ccc(C4=CCCCC4)cc3)[C@@H]2C1` [BRD-K26542939-001-01-0], the IC50 (sheet 2nd round) is > 10 µM. The “Tox_max_inhibition (%)” value under setting [2] turned out to be 16%.

Turning to `COc1ccccc1S(=O)(=O)N(C)C[C@@H]1Oc2cc(/C=C/c3ccccc3)ccc2S(=O)(=O)N([C@H](C)CO)C[C@H]1C` [BRD-K26611181-001-01-8], the IC50 (sheet 2nd round) is > 10 µM. Further, the “Tox_max_inhibition (%)” value under setting [2] was determined as 33%.

As to `C[C@@H]1CCCCO[C@@H](CN(C)C(=O)Nc2cccc3ccccc23)[C@H](C)CN([C@@H](C)CO)C(=O)c2cc(NC(=O)CCC(F)(F)F)ccc2O1` [BRD-K26887637-001-01-4], the IC50 (sheet 2nd round) was > 10 µM. Besides, under setting [2], the “Tox_max_inhibition (%)” value stood at 11%.

As for `O=C(Cc1ccccc1)N1CC(=O)N2[C@H](CO)[C@H](c3ccc(C#CCc4ccccc4)cc3)[C@H]2C1` [BRD-K27191881-001-01-3], for the setting “sheet 2nd round”, the IC50 is > 10 µM. For the same compound, the “Tox_max_inhibition (%)” value under setting [2] is reported as 3.49%.

Take `C[C@H]1CN([C@@H](C)CO)C(=O)c2cc(/C=C/c3ccccc3)cnc2O[C@@H]1CN(C)C(=O)C1CCCCC1` [BRD-K27989629-001-01-7]: the IC50 (sheet 2nd round) is > 10 µM. For the same compound, the “Tox_max_inhibition (%)” value under setting [2] is on record as 5%.

Consider `CC(C)CC#Cc1ccc([C@@H]2[C@H]3CN(C(=O)Nc4ccccc4)CCCCN3[C@H]2CO)cc1` [BRD-K28504277-001-01-8], for which the IC50 (sheet 2nd round) was determined as 5.23 µM. Under setting [2], the “Tox_max_inhibition (%)” value was determined as 99%.

With `COc1ccccc1NC(=O)Nc1ccc2c(c1)OC[C@@H](C)N(Cc1ccccc1Cl)C[C@@H](C)[C@H](OC)CN(C)C2=O` [BRD-K28918058-001-01-5], the IC50 (sheet 2nd round) is > 10 µM. Also, the “Tox_max_inhibition (%)” value under setting [2] worked out at 13%.

In the case of `CCCNC(=O)N1[C@H](C#N)[C@H](c2ccccc2C2=CCCCC2)[C@@H]1CO` [BRD-K29207675-001-01-5], the “Tox_max_inhibition (%)” value under setting [1] is 12%. For the same compound, the IC50 (2nd round, unit inferred) is > 10 µM.

On to `COc1ccc2c3c([nH]c2c1)[C@H](CO)N(C(C)=O)CC31CCN(C(=O)Nc2ccccc2F)CC1` [BRD-K30973842-001-02-5], for which the IC50 (sheet 2nd round) is > 10 µM. In addition, under setting [2], the “Tox_max_inhibition (%)” value is 14%.

As for `COc1ccc2c3c([nH]c2c1)[C@@H](CO)N(S(C)(=O)=O)CC31CCN(C(=O)Nc2ccccc2)CC1` [BRD-K31411295-001-01-9], for the setting “sheet "2nd round"”, the IC50 was > 10 µM and the “Tox_max_inhibition (%)” value is reported as 17%.

Consider `CN1C(=O)c2cc(NC(=O)c3cccc(F)c3)ccc2OC[C@H]2O[C@H](CC(=O)NCC3CCCCC3)CC[C@H]21` [BRD-K31618614-001-02-1], for which, under “sheet "2nd round"”, the IC50 is > 10 µM and the “Tox_max_inhibition (%)” value was found to be 27%.

In the case of `CCCNC(=O)N1[C@H](C#N)[C@H](c2ccc(C#Cc3cccc(F)c3)cc2)[C@H]1CO` [BRD-K31857539-001-01-9], where the note is “sheet "2nd round"”, the IC50 is > 10 µM and the “Tox_max_inhibition (%)” value was 6%.

In the case of `O=C(C[C@H]1C[C@@H]2c3cc(NC(=O)c4ccc5c(c4)OCO5)ccc3O[C@@H]2[C@@H](CO)O1)NCc1ccc(Oc2ccccc2)cc1` [BRD-K34781184-001-01-6], the IC50 (sheet 2nd round) is > 10 µM. Besides, the “Tox_max_inhibition (%)” value under setting [2] is reported as 49%.

For the compound `CCCNC(=O)N1[C@H](C#N)[C@@H](c2ccccc2-c2cccc(C)c2)[C@@H]1CO` [BRD-K35047119-001-01-1], the “Tox_max_inhibition (%)” value under setting [1] came to 7%. Moreover, the IC50 (2nd round, unit inferred) is > 10 µM.

With `Cc1cc(C(=O)Nc2ccc3c(c2)C(=O)N(C)[C@@H]2CC[C@H](CC(=O)NCc4ccc(-c5ccccc5)cc4)O[C@@H]2CO3)no1` [BRD-K35841161-001-02-2], under “sheet 2nd round”, the IC50 is > 10 µM. Besides, the “Tox_max_inhibition (%)” value under setting [2] is 37%.

Consider `CCCC(=O)Nc1ccc2c(c1)OC[C@@H](C)N(Cc1cc(F)ccc1F)C[C@@H](C)[C@H](OC)CN(C)C2=O` [BRD-K36104357-001-01-0], for which, under “sheet "2nd round"”, the IC50 is > 10 µM and the “Tox_max_inhibition (%)” value is 18%.

As to `C[C@@H]1CN([C@H](C)CO)C(=O)c2cccc(NC(=O)c3ccc(-c4nccs4)cc3)c2O[C@@H]1CN(C)C(=O)Nc1ccc(C(F)(F)F)cc1` [BRD-K36757984-001-01-6], the IC50 (sheet 2nd round) is > 10 µM. Moreover, under setting [2], the “Tox_max_inhibition (%)” value came out at 2.49%.

As to `COc1ccccc1C#Cc1ccc([C@@H]2[C@@H](CO)N3CCCCN(C(=O)C4CCC4)C[C@H]23)cc1` [BRD-K36773541-001-01-9], for the setting “sheet 2nd round”, the IC50 was > 10 µM. The “Tox_max_inhibition (%)” value under setting [2] was found to be 6%.

`CN1C(=O)c2cc(NC(=O)c3ccc(C(F)(F)F)cc3)ccc2OC[C@H]2O[C@@H](CC(=O)NCc3ccc4c(c3)OCO4)CC[C@H]21` [BRD-K38534329-001-01-1]: the IC50 (sheet 2nd round) worked out at 5.49 µM. In addition, the “Tox_max_inhibition (%)” value under setting [2] was 57%.

With `COc1ccc(C#Cc2ccc([C@@H]3[C@@H](CO)N4CCCCN(C(=O)Nc5cccc(F)c5)C[C@H]34)cc2)cc1` [BRD-K38867404-001-01-3], where the note is “sheet 2nd round”, the IC50 was > 10 µM. For the same compound, the “Tox_max_inhibition (%)” value under setting [2] was 4%.

As for `CO[C@@H]1CN(C)C(=O)c2ccc(NC(=O)c3ccc4c(c3)OCO4)cc2OC[C@@H](C)N(Cc2ccc3c(c2)OCO3)C[C@H]1C` [BRD-K38901607-001-01-5], where the note is “sheet "2nd round"”, the IC50 is > 10 µM and the “Tox_max_inhibition (%)” value came to 11%.

`C[C@@H]1CCCCO[C@H](CN(C)S(=O)(=O)c2ccc(F)cc2)[C@@H](C)CN([C@H](C)CO)C(=O)c2cc(N(C)C)ccc2O1` [BRD-K38977317-001-01-6]: under “sheet 2nd round”, the IC50 was > 10 µM. Further, the “Tox_max_inhibition (%)” value under setting [2] was determined as 6%.

On to `Cc1ccc(S(=O)(=O)N(C)C[C@@H]2Oc3cc(C#CC4CCCC4)ccc3S(=O)(=O)N([C@@H](C)CO)C[C@H]2C)cc1` [BRD-K40215908-001-01-2], for which the “Tox_max_inhibition (%)” value under setting [1] is 34%. For the setting “2nd round, unit inferred”, the IC50 is > 10 µM.

As to `C[C@H]1CCCCO[C@H](CN(C)S(=O)(=O)c2ccccc2)[C@@H](C)CN([C@@H](C)CO)C(=O)c2cc(NC(=O)Nc3ccc4c(c3)OCO4)ccc2O1` [BRD-K40819914-001-01-3], for the setting “sheet "2nd round"”, the IC50 is > 10 µM and the “Tox_max_inhibition (%)” value is reported as 8.49%.

As to `O=C(Nc1ccccc1F)N1CCCCN2[C@H](C1)[C@@H](c1ccc(/C=C/c3ccccc3)cc1)[C@@H]2CO` [BRD-K41442469-001-01-2], for the setting “sheet "2nd round"”, the IC50 is > 10 µM and the “Tox_max_inhibition (%)” value was found to be 8.49%.

As to `O=C(Nc1ccccc1F)N1CCCCN2[C@H](C1)[C@H](c1ccc(/C=C/c3ccccc3)cc1)[C@@H]2CO` [BRD-K41549807-001-01-5], where the note is “sheet "2nd round"”, the IC50 is > 10 µM and the “Tox_max_inhibition (%)” value is on record as 10%.

Turning to `COc1ccc(-c2ccc([C@H]3[C@@H](C#N)N(C(=O)NC(C)C)[C@@H]3CO)cc2)cc1` [BRD-K42750356-001-01-3], where the note is “sheet "2nd round"”, the IC50 is > 10 µM and the “Tox_max_inhibition (%)” value worked out at 10%.

For the compound `O=C(Nc1cccc(F)c1)N1CCCCN2[C@H](CO)[C@@H](c3ccc(C#Cc4cccnc4)cc3)[C@@H]2C1` [BRD-K43947390-001-01-2], the IC50 (sheet 2nd round) was > 10 µM. For the same compound, the “Tox_max_inhibition (%)” value under setting [2] came out at 5.34%.

`C[C@H](CO)N1C[C@H](C)[C@H](CN(C)S(=O)(=O)c2ccccc2)OCCCC[C@H](C)Oc2ccc(NC(=O)Nc3ccc4c(c3)OCO4)cc2C1=O` [BRD-K43975729-001-01-5]: under “sheet "2nd round"”, the IC50 was > 10 µM and the “Tox_max_inhibition (%)” value amounted to 7%.

For the compound `O=C(C[C@H]1C[C@@H]2c3cc(NS(=O)(=O)c4ccc(F)cc4)ccc3O[C@@H]2[C@@H](CO)O1)N1CCc2ccccc2C1` [BRD-K45723650-001-01-0], where the note is “sheet "2nd round"”, the IC50 was > 10 µM and the “Tox_max_inhibition (%)” value is listed as -1%.

Consider `O=C(Nc1ccccc1F)N1CCCCN2[C@H](CO)[C@@H](c3ccc(/C=C/c4ccccc4)cc3)[C@H]2C1` [BRD-K46850496-001-01-8], for which, for the setting “sheet 2nd round”, the IC50 was > 10 µM. The “Tox_max_inhibition (%)” value under setting [2] is 11%.

Turning to `COc1ccc2c3c([nH]c2c1)[C@H](CO)N(S(C)(=O)=O)CC31CCN(C(=O)Nc2ccccc2)CC1` [BRD-K47463456-001-01-7], for the setting “sheet "2nd round"”, the IC50 was > 10 µM and the “Tox_max_inhibition (%)” value is listed as 13%.

For the compound `CCC(=O)N1CC2(CCN(C(=O)Nc3ccccc3F)CC2)c2c([nH]c3cc(OC)ccc23)[C@@H]1CO` [BRD-K48749217-001-01-8], the IC50 (sheet 2nd round) was > 10 µM. Under setting [2], the “Tox_max_inhibition (%)” value amounted to 5.53%.

Take `CCCC#Cc1ccc2c(c1)O[C@H](CN(C)Cc1ccccn1)[C@H](C)CN([C@@H](C)CO)S2(=O)=O` [BRD-K48766892-001-01-4]: where the note is “sheet "2nd round"”, the IC50 was > 10 µM and the “Tox_max_inhibition (%)” value turned out to be 7%.

As for `CC(C)NC(=O)N1[C@H](C#N)[C@H](c2ccc(C#CC3CCCCC3)cc2)[C@@H]1CO` [BRD-K48864121-001-01-0], under setting [1], the “Tox_max_inhibition (%)” value turned out to be 54%. The IC50 (2nd round, unit inferred) is 9.68 µM.

As to `O=C(C[C@H]1CC[C@@H]2[C@H](COC[C@H](O)CN2Cc2ccc(C(F)(F)F)cc2)O1)N1CCc2ccccc2C1` [BRD-K49087010-001-01-1], under “sheet "2nd round"”, the IC50 came out at 9.12 µM and the “Tox_max_inhibition (%)” value is 60%.

Turning to `O=C(Nc1ccccc1F)N1CCCCN2[C@H](CO)[C@@H](c3ccc(/C=C/c4ccccc4)cc3)[C@@H]2C1` [BRD-K50964970-001-01-5], where the note is “sheet "2nd round"”, the IC50 is > 10 µM and the “Tox_max_inhibition (%)” value is 8%.

For `COc1ccc(C#Cc2ccc3c(c2)O[C@@H](CN(C)C(=O)Nc2cccc(OC)c2)[C@@H](C)CN([C@@H](C)CO)S3(=O)=O)cc1` [BRD-K52609475-001-01-4], the “Tox_max_inhibition (%)” value under setting [1] is 6%. In addition, the IC50 (2nd round, unit inferred) was > 10 µM.

The values above are taken from article PMC4890880 (ACS infectious diseases, 2016).
